# Experimental data published in publication PMC10541198, “Specific quinone reductase 2 inhibitors reduce metabolic burden and reverse Alzheimer’s disease phenotype in mice” (The Journal of Clinical Investigation, 2023).
# “And” between values parts separate entries of the source, which are not always exact repeats. Equal values may be shown once.
# Legend:
# [1] = test system: Amyloid β 42; assay: Amyloid β 42 ELISA, whole brain soluble and insoluble fractions; format: in vivo, mouse; parameters: Sup. Fig. 6-6A, individual animal values / Sup. Fig. 6-6B, individual animal values / Sup. Fig. 6-6D, individual animal values / Sup. Fig. 6-6G, individual animal values / Sup. Fig. 6-6H, individual animal values: unit not given here; settings: for Insoluble amyloid β 42 / Ratio of soluble- to insoluble amyloid β 42 / Soluble amyloid β 42: whole brain, 5xFAD 1 month
# Method: Following completion of treatment with YB-537 or vehicle for 1 month in drinking water, mice were sacrificed, and brains were quickly removed and placed on ice. Brains were then bisected, and the cerebellum removed. Both hemispheres were then flash frozen in liquid nitrogen, with one hemisphere being used for Amyloid β 42 detection and the other used for WB. For Amyloid β 42 detection the hemisphere was first weighed, and then homogenised on ice using 1 mL of 0.1% Triton X-100 in TBS with complete protease inhibitor (Roche) and phosphatase inhibitor cocktail (Roche). Homogenates were then centrifuged at 100,000g for 1 h at 4° C, and supernatant containing t he soluble fraction of Amyloid β 42 was collected and stored at - 20° C overnight. The pellet, containing insoluble Amyloid β 42 was re - suspended in 1 mL of 5M guanidine HCl, placed on a rocker at RT f or 2h, and then stored overnight at 4° C, with later storage being done at -20° C. The insoluble fraction was then diluted 1:5 in TBS, and centrifuged for 30 min at 13,000g and 4° C. The resulting supernatant was then used to quantify the insoluble fraction. Protein determination was done on both soluble and insoluble fractions thus prepared, using a BCA kit (Thermo). Human Amyloid (aa1- 42) Quantikine ELISA Kit was then used as per the manufacturer’s instructions (R&D Systems, DAB142). Results obtained were then quantified as ng Amyloid β 42 / mL sample / brain hemisphere weight.
# Experimental grouping was randomly allocated, in both rats and mice. The size for each group was based on previously published results by means of similar methods, with the use of an online power calculator (https://www.stat.ubc.ca/~rollin/stats/ssize/n2.html). Shapiro- Wilk normality tests were done for the collected data. Anal ysi s of normally distributed dat a was done using par am et ri c t ests (i .e. - unpaired students t-test, one-way ANOVA followed by Tukey’s or Sidak post hoc anal ys i s) and for data not normally
# [2] = test system: CD73; assay: Immunoblot of CD73 in HCT116 cells after 4-day treatment; format: cell-based, human; settings: 2 μM, 4 days
# Method: To establish direct target engagement and cell membrane permeability, a cellular thermal shift assay (CETSA) was carried out, using leading QR2is YB’s-537, 800, and 808. Following a 1 hour preincubation with 5 μM of the QR2is or vehicle, thermal aggregation curves (Taggs) of QR2 expressed in HEK293T were measured in increasing temperatures. All QR2is increased QR2 thermal stability compared with vehicle (Supplemental Figure 2A). Based on the Tagg curves we selected 73°C for isothermal dose-response fingerprint (IDTRF) experiments (Supplemental Figure 2B). The ITDRF allowed the relative quantification of the binding of each of the QR2is to QR2, measured as the EC50 (Figure 3A). […] We evaluated the safety of the QR2is using cell toxicity and viability assays. […] Cell viability was assessed by XTT assay in HEK239T cells, using a dose response, with 3- or 24-hour incubations of the leading QR2is. […] We then assessed WT HCT116 cells by immunoblot (Supplemental Figure 2, C and D), after being treated with YB-800 (2 μM) for 4 consecutive days. […]
# The cells wer e har ves t ed a nd resuspended in 1% cl ear m e di um ( DM EM – with no phenol red, suppl em ent ed with 1% FBS, 1% L-Glutamine and 1% Penicillin-Streptomycin). […] The plate wa s then incubated in the dark at 37°C f or 3 h, before reading in a Tecan M200 Pro florescence microplate reader, using wavelengths Ex/Em = 485 nm / 535 nm . […]
SMILES,"Sup. Fig. 6-6A, individual animal values ([1]; 5xFAD whole brain, all animals)","Sup. Fig. 6-6B, individual animal values ([1]; 5xFAD whole brain, all animals)","Sup. Fig. 6-6C, individual animal values ([1]; 5xFAD whole brain, all animals, ratio of 6-6A to 6-6B values)","Sup. Fig. 6-6D, individual animal values ([1]; 5xFAD whole brain, first subset of the 6-6A animals (sex not given))","Sup. Fig. 6-6F, individual animal values ([1]; 5xFAD whole brain, first subset of the 6-6C animals (sex not given), ratio)","Sup. Fig. 6-6G, individual animal values ([1]; 5xFAD whole brain, second subset of the 6-6A animals (sex not given))","Sup. Fig. 6-6H, individual animal values ([1]; 5xFAD whole brain, second subset of the 6-6B animals (sex not given))","Sup. Fig. 6-6I, individual animal values ([1]; 5xFAD whole brain, second subset of the 6-6C animals (sex not given), ratio)",Insoluble amyloid β 42 ([1]; both sexes),Ratio of soluble- to insoluble amyloid β 42 ([1]; both sexes),Soluble amyloid β 42 ([1]; both sexes),Insoluble amyloid β 42 ([1]; female),Soluble amyloid β 42 ([1]; female),Insoluble amyloid β 42 ([1]; male),Ratio of soluble- to insoluble amyloid β 42 ([1]; male),Soluble amyloid β 42 ([1]; male),CD73 expression (replicates) [2]
Cc1ccc(-c2cn3cccc(C)c3n2)cc1S(=O)(=O)N1CCNCC1 [YB-537],0.36 and 0.35 and 1.82 and 1.07 and 0.33 and 5.68 and 2.65 and 2.02 and 0.56,31.16 and 54.15 and 11052.63 and 8070.79 and 40.92 and 4330.77 and 6642.89 and 15767.97 and 26.71,0.0114 and 0.0064 and 0.000165 and 0.000133 and 0.0080 and 0.0013 and 0.0004 and 0.000128 and 0.0210,1.07 and 0.33 and 5.68 and 2.65 and 0.56 and 0.35,0.000133 and 0.0080 and 0.0013 and 0.0004 and 0.0210 and 0.0064,2.02 and 0.36 and 1.82,15767.97 and 31.16 and 11052.63,0.000128 and 0.0114 and 0.000165,insignificantly reduced,insignificantly increased,insignificantly reduced,insignificantly reduced,insignificantly reduced,insignificantly reduced,insignificantly increased,insignificantly reduced,–
Cc1ccc(-c2cn3cccc(C)c3n2)cc1S(=O)(=O)N1CCC(C)CC1 [YB-800],–,–,–,–,–,–,–,–,–,–,–,–,–,–,–,–,1.393 and 1.4862 and 1.532 and 1.811 and 1.4595 and 1.188
